Experimental data as given in patent publication US11076595B2, “1-(n,n-disubstituted carbamoyl) 4-(substituted sulfonyl)triazolin-5-one derivative, 4-(n,n-disubstituted carbamoyl) 1-(substituted sulfonyl)triazolin-5-one derivative, and herbicide containing said derivative as active ingredient” (HOKKO CHEMICAL INDUSTRY CO., LTD., priority 2017, dated 2021).

Assays:
Assay type in all cases: in vivo
Monochoria vaginalis [1] = assay: Test Example 1: herbicidal effect test by soil treatment in paddy field; details: 120 g/10a, paddy soil treatment just after sowing, 14 days after treatment
Source text: (§1) A Wagner pot having an area of 1/10000 are was filled with paddy field soil and after adding water, a chemical fertilizer (N:P:K=17:17:17) was mixed, followed by puddling. Thereafter, 30 grains of each of Echinochloa crus-galli, broad-leaved weed (Lindernia pyxidaria and Monochoria vaginalis) and Scirpus juncoides seeds were sown to a depth of 0 to 1 cm. Immediately after the sowing, the pot was flooded, and the depth of water was kept at about 3 cm. The pot was subsequently managed in a glass greenhouse. Just after that, an emulsifiable concentrate prepared according to Formulation Example 5 by using the compound shown in Table 5 below was diluted with water, and a predetermined amount of the water-diluted formulation was added dropwise. The application rate of the active ingredient, by conversion, corresponded to 120 g per 10 are.
(§2) This test was performed with two replications per one formulation concentration plot, and 14 days after the formulation treatments, the weed suppression rate (%) was determined according to the following equation (Math. 1). Weed suppression rate (%)=(1−an average dry weight (g) of plants in treated plots/an average dry weight (g) of plants in untreated plots)×100 [Math. 1]

Echinochloa crus-galli [2] = assay: as above; details: 120 g/10a, paddy soil treatment just after sowing, 14 days after treatment
Source text: as §1, §2

Scirpus juncoides [3] = assay: as above; details: 120 g/10a, paddy soil treatment just after sowing, 14 days after treatment
Source text: as §1, §2

Lindernia pyxidaria [4] = assay: as above; details: 120 g/10a, paddy soil treatment just after sowing, 14 days after treatment
Source text: as §1, §2

Monochoria vaginalis [5] = assay: Test Example 2: herbicidal effect test by treatment during growing period in paddy field; details: treatment 7 days after sowing, 120 g/10a, evaluated 14 days after treatment
Experimental: as §2
as §1, with “greenhouse. Seven days” for “greenhouse. Just”, “after sowing,” for “after that,”, “Table 6” for “Table 5”, “are. The test was performed with two replications per one formulation concentration plot, and 14 days after the formulation treatments, the weed suppression rate (%) was determined according to the equation (Math. 1).” for “are.”

Echinochloa crus-galli [6] = assay: as above; details: treatment 7 days after sowing, 120 g/10a, evaluated 14 days after treatment
Experimental: as §2
as §1, with “greenhouse. Seven days” for “greenhouse. Just”, “after sowing,” for “after that,”, “Table 6” for “Table 5”, “are. The test was performed with two replications per one formulation concentration plot, and 14 days after the formulation treatments, the weed suppression rate (%) was determined according to the equation (Math. 1).” for “are.”

Scirpus juncoides [7] = assay: as above; details: treatment 7 days after sowing, 120 g/10a, evaluated 14 days after treatment
Experimental: as §2
as §1, with “greenhouse. Seven days” for “greenhouse. Just”, “after sowing,” for “after that,”, “Table 6” for “Table 5”, “are. The test was performed with two replications per one formulation concentration plot, and 14 days after the formulation treatments, the weed suppression rate (%) was determined according to the equation (Math. 1).” for “are.”

Lindernia pyxidaria [8] = assay: as above; details: treatment 7 days after sowing, 120 g/10a, evaluated 14 days after treatment
Experimental: as §2
as §1, with “greenhouse. Seven days” for “greenhouse. Just”, “after sowing,” for “after that,”, “Table 6” for “Table 5”, “are. The test was performed with two replications per one formulation concentration plot, and 14 days after the formulation treatments, the weed suppression rate (%) was determined according to the equation (Math. 1).” for “are.”

Echinochloa crus-galli [9] = assay: Test Example 14: herbicidal effect test by foliage treatment in upland field; details: 7 days after sowing, 120 g/10a, 14 days after treatment
Method in brief: (§3)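 Emulsifiable concentrate, water-diluted, is applied post-emergence to 7-day-old sowings in field soil at 120 g active ingredient per 10 are. The weed suppression rate derives from average dry weights versus untreated controls, measured 14 days later.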

Amaranthus viridis [10] = assay: as above; details: 7 days after sowing, 120 g/10a, 14 days after treatment
Method in brief: as §3

Monochoria vaginalis [11] = assay: Test Example 12: herbicidal effect test by treatment during growing period in paddy field; details: 120 g/10a; treatment seven days after sowing in flooded paddy pot; assessed 14 days after treatment
Method in brief: (§4)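 Seeds (30 per species) are sown shallowly into fertilized, puddled paddy soil kept under ~3 cm of water in a greenhouse. One week later, compound formulated as an emulsifiable concentrate is applied dropwise to the water at 120 g a.i./10 are. After 14 days, dry weights give percent suppression against untreated controls.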

Echinochloa crus-galli [12] = assay: as above; details: 120 g/10a; treatment seven days after sowing in flooded paddy pot; assessed 14 days after treatment
Method in brief: as §4

Scirpus juncoides [13] = assay: as above; details: 120 g/10a; treatment seven days after sowing in flooded paddy pot; assessed 14 days after treatment
Method in brief: as §4

Lindernia pyxidaria [14] = assay: as above; details: 120 g/10a; treatment seven days after sowing in flooded paddy pot; assessed 14 days after treatment
Method in brief: as §4

Monochoria vaginalis [15] = assay: Test Example 11: herbicidal effect test by soil treatment in paddy field; details: 120 g/10a active ingredient, 14 days after treatment
Method in brief: (§5)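 Pre-emergence flooded-paddy test: the water-diluted emulsifiable concentrate, 120 g active ingredient per 10 are, was dripped into pots immediately after seeding, with water held at about 3 cm. Two replicate pots per rate; 14 days after treatment, plant dry weight versus untreated pots gave the weed suppression rate.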

Echinochloa crus-galli [16] = assay: as above; details: 120 g/10a active ingredient, 14 days after treatment
Method in brief: as §5

Scirpus juncoides [17] = assay: as above; details: 120 g/10a active ingredient, 14 days after treatment
Method in brief: as §5

Lindernia pyxidaria [18] = assay: as above; details: 120 g/10a active ingredient, 14 days after treatment
Method in brief: as §5

Chenopodium album [19] = assay: Test Example 14: herbicidal effect test by foliage treatment in upland field; details: 7 days after sowing, 120 g/10a, 14 days after treatment
Method in brief: as §3

crabgrass [20] = assay: as above; details: 7 days after sowing, 120 g/10a, 14 days after treatment
Method in brief: as §3

Chenopodium album [21] = assay: Test Example 13: herbicidal effect test by soil treatment in upland field; details: 120 g/10a, 14 days after treatment
Method in brief: (§6)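 Weed suppression rate (%) computed at 14 days as 1 minus treated/untreated mean dry weight, times 100, with two replicates per concentration. Emulsifiable concentrate diluted in water was applied at 120 g a.i. per 10 are (100 liter per 10 are) onto soil surface one day post-sowing of 20 seeds each in 36 cm^2 pots of alluvial soil.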

Echinochloa crus-galli [22] = assay: as above; details: 120 g/10a, 14 days after treatment
Method in brief: as §6

crabgrass [23] = assay: as above; details: 120 g/10a, 14 days after treatment
Method in brief: as §6

Amaranthus viridis [24] = assay: as above; details: 120 g/10a, 14 days after treatment
Method in brief: as §6

Row | SMILES | weed suppression rate, Monochoria vaginalis (Monochoria vaginalis [1]) [%] | weed suppression rate, Echinochloa crus-galli (Echinochloa crus-galli [2]) [%] | weed suppression rate, Scirpus juncoides (Scirpus juncoides [3]) [%] | weed suppression rate, Lindemia pyxidaria (Lindernia pyxidaria [4]) [%] | weed suppression rate, Monochoria vaginalis (Monochoria vaginalis [5]) [%] | weed suppression rate, Echinochloa crus-galli (Echinochloa crus-galli [6]) [%] | weed suppression rate, Scirpus juncoides (Scirpus juncoides [7]) [%] | weed suppression rate, Lindemia pyxidaria (Lindernia pyxidaria [8]) [%] | herbicidal effect, Echinochloa crus-galli (Echinochloa crus-galli [9]) [%] | herbicidal effect, Amaranthus viridis (Amaranthus viridis [10]) [%] | Weed suppression rate (%) Monochoria vaginalis (Monochoria vaginalis [11]) [%] | Weed suppression rate (%) Echinochloa crus-galli (Echinochloa crus-galli [12]) [%] | Weed suppression rate (%) Scirpus juncoides (Scirpus juncoides [13]) [%] | Weed suppression rate (%) Lindemia pyxidaria (Lindernia pyxidaria [14]) [%] | Weed suppression rate (%) Monochoria vaginalis (Monochoria vaginalis [15]) [%] | Weed suppression rate (%) Echinochloa crus-galli (Echinochloa crus-galli [16]) [%] | Weed suppression rate (%) Scirpus juncoides (Scirpus juncoides [17]) [%] | Weed suppression rate (%) Lindemia pyxidaria (Lindernia pyxidaria [18]) [%] | herbicidal effect, Chenopodium album (Chenopodium album [19]) [%] | herbicidal effect, Crabgrass (crabgrass [20]) [%] | other results
1 | CC(C)N(C(=O)n1ncn(S(=O)(=O)C2CC2)c1=O)c1ccc(Br)cc1Cl [Compound 1-218] | 80 | 100 | 100 | 100 | 80 | 100 | 100 | 100 | – | – | – | – | – | – | – | – | – | – | – | – | –
2 | Cc1ccc(S(=O)(=O)n2cnn(C(=O)N(c3ccc(Cl)nc3Cl)C(C)C)c2=O)cc1 [Compound 1-690] | 90 | 100 | 90 | 100 | 90 | 100 | 90 | 90 | – | – | – | – | – | – | – | – | – | – | – | – | –
3 | CC(C)N(C(=O)n1ncn(S(=O)(=O)N(C)C)c1=O)c1ccc(Cl)nc1 [Compound 1-1135] | 60 | 90 | 90 | 90 | 70 | 90 | 90 | 60 | – | – | – | – | – | – | – | – | – | – | – | – | –
4 | CC(C)N(C(=O)n1ncn(S(=O)(=O)C(C)C)c1=O)c1ccc(F)nc1 [Compound 1-91] | 90 | 100 | 90 | 90 | 90 | 100 | 90 | 90 | – | – | – | – | – | – | – | – | – | – | – | – | –
5 | CC(C)N(C(=O)n1ncn(S(=O)(=O)c2cccs2)c1=O)c1ccc(F)cc1F [Compound 1-1060] | 80 | 90 | 90 | 80 | – | – | – | – | – | – | – | – | – | – | – | – | – | – | – | – | –
6 | COc1ccc(S(=O)(=O)n2ncn(C(=O)N(c3c(F)cc(F)cc3F)C(C)C)c2=O)cc1 [Compound 11-1155] | – | – | – | – | – | – | – | – | 90 | 30 | 90 | 100 | 90 | 80 | 80 | 100 | 100 | 100 | 60 | 100 | herbicidal effect, Chenopodium album (Chenopodium album [21]): 30%; herbicidal effect, Echinochloa crus-galli (Echinochloa crus-galli [22]): 90%; herbicidal effect, Crabgrass (crabgrass [23]): 90%; herbicidal effect, Amaranthus viridis (Amaranthus viridis [24]): 30%
7 | CC(C)N(C(=O)n1cnn(S(=O)(=O)c2cccc(F)c2)c1=O)c1ccccc1 [Compound 11-427] | – | – | – | – | – | – | – | – | 40 | 40 | 90 | 90 | 90 | 90 | 60 | 100 | 60 | 80 | 60 | 90 | herbicidal effect, Chenopodium album (Chenopodium album [21]): 60%; herbicidal effect, Echinochloa crus-galli (Echinochloa crus-galli [22]): 70%; herbicidal effect, Crabgrass (crabgrass [23]): 90%; herbicidal effect, Amaranthus viridis (Amaranthus viridis [24]): 40%
8 | Cc1ccccc1S(=O)(=O)n1ncn(C(=O)N(c2ccc(F)cc2F)C(C)C)c1=O [Compound 11-623] | – | – | – | – | – | – | – | – | 80 | 40 | 100 | 100 | 90 | 100 | 90 | 100 | 90 | 100 | 40 | 60 | herbicidal effect, Chenopodium album (Chenopodium album [21]): 0%; herbicidal effect, Echinochloa crus-galli (Echinochloa crus-galli [22]): 100%; herbicidal effect, Crabgrass (crabgrass [23]): 90%; herbicidal effect, Amaranthus viridis (Amaranthus viridis [24]): 0%
9 | CC(C)N(C(=O)n1cnn(S(=O)(=O)c2cccs2)c1=O)c1ccc(F)cc1Cl [Compound 11-1029] | – | – | – | – | – | – | – | – | 80 | 90 | 80 | 90 | 90 | 80 | 80 | 90 | 90 | 80 | 80 | 90 | herbicidal effect, Chenopodium album (Chenopodium album [21]): 80%; herbicidal effect, Echinochloa crus-galli (Echinochloa crus-galli [22]): 80%; herbicidal effect, Crabgrass (crabgrass [23]): 90%; herbicidal effect, Amaranthus viridis (Amaranthus viridis [24]): 90%
